Experimental data reported in patent US20250092056A1, “URACIL DERIVATIVES HAVING VIRUS REPLICATION INHIBITORY ACTIVITY AND PHARMACEUTICAL COMPOSITION COMPRISING THE SAME” (Shionogi & Co., Ltd., priority 2022, published 2025).
Like-named read-outs stand apart in the source and are kept apart here.

How the values were obtained:
SARS-CoV-2 = assay: Cytopathic effect (CPE) suppression effect confirmation test using HEK293T/ACE2-TMPRSS2 cells; assay type: cell-based; details: Severe acute respiratory syndrome coronavirus 2, HEK-293T
[1] = target: Recombinant SARS-CoV-2 3CL Protease (Severe acute respiratory syndrome coronavirus 2 (2019-nCoV) (SARS-CoV-2), UniProt P0DTD1); assay: biochemical; assay type: biochemical; details: 50% SARS-CoV-2 3CL protease inhibitory concentration; read-out: IC50
[2] = 72 h, read-out: EC50 (50% SARS-CoV-2 infected cell death inhibitory concentration), class, HEK293T/ACE2-TMPRSS2 cells, CPE suppression, CellTiter-Glo 2.0 after 3 days culture
[3] = 50% SARS-CoV-2 infected cell death inhibitory concentration, HEK293T/ACE2-TMPRSS2 cells, read-out: EC50
[4] = 72 h, HEK293T/ACE2-TMPRSS2 cells, CPE suppression, CellTiter-Glo 2.0 after 3 days culture, read-out: EC50 (50% SARS-CoV-2 infected cell death inhibitory concentration), class
[5] = 72 h, read-out: EC50 (50% SARS-CoV-2 infected cell death inhibitory concentration), HEK293T/ACE2-TMPRSS2 cells, CPE suppression, CellTiter-Glo 2.0 after 3 days culture

SMILES	EC50 (SARS-CoV-2; [2])	IC50 [1]	EC50 (SARS-CoV-2; [3])	EC50 (SARS-CoV-2; [4])	EC50 (SARS-CoV-2; [5])
Cc1cncc(-n2c(=O)c(Cc3cc(F)c(F)c(F)c3)c(N3CCC(O)(C(F)(F)F)CC3)n(CC#N)c2=O)c1 [Compound I-116]	< 100 nM	< 10 nM	–	–	–
Cn1cnc(Cn2c(=O)c(Cc3cc(F)c(F)c(F)c3)c(N3Cc4ccccc4C3)n(CC#N)c2=O)n1 [Compound I-008]	100 to 1000 nM	> 100 nM	–	–	–
N#CCn1c(N2CC(OC(F)F)C2)c(-c2ccc(F)c(Cl)c2)c(=O)n(-c2cncc(C(F)(F)F)n2)c1=O [Compound I-335]	–	< 10 nM	< 100 nM	–	–
Cc1cncc(-n2c(=O)c(Cc3cc(F)c(F)c(F)c3)c(N3CCC(C(N)=O)C3)n(CC#N)c2=O)c1 (racemic) [Compound I-100]	< 100 nM	< 10 nM	–	–	–
N#CCn1c(N2CC(O)(C(F)(F)F)C2)c(-c2cc(F)c(F)c(C#N)c2)c(=O)n(-c2cncc(Cl)c2)c1=O [Compound I-367]	–	< 10 nM	< 100 nM	–	–
Cc1cc(-n2c(=O)c(-c3ccc(F)c(Cl)c3)c(N3CC4(C3)CC(F)(F)C4)n(CC#N)c2=O)cc(=O)[nH]1 [Compound I-163]	100 to 1000 nM	< 10 nM	–	–	–
Cc1cncc(-n2c(=O)c(-c3ccc(F)c(Cl)c3)c(C#CC3CC3)n(CC#N)c2=O)c1 [Compound I-248]	–	< 10 nM	100 to 1000 nM	–	–
N#CCn1c(N2CC3(C2)CC(F)(F)C3)c(-c2ccc(F)c(Cl)c2)c(=O)n(-c2cncc(Br)c2)c1=O [Compound I-361]	–	< 10 nM	< 100 nM	–	–
N#CCn1c(N2C[C@@H]3C[C@H]2CO3)c(-c2ccc(F)c(C#N)c2)c(=O)n(-c2cncc(Cl)c2)c1=O [Compound I-376]	–	< 10 nM	< 100 nM	–	–
CNc1cnnc(-n2c(=O)c(-c3ccc(F)c(Cl)c3)c(N3CC4(C3)CC(F)(F)C4)n(CC#N)c2=O)c1 [Compound I-218]	–	< 10 nM	1000 to 5000 nM	–	–
Cc1cncc(-n2c(=O)c(Cc3cc(F)c(F)c(F)c3)c(-c3ccc(C)c(C)c3)n(C3(C#N)CC3)c2=O)c1 [Compound I-049]	–	10 to 100 nM	–	100 to 1000 nM	–
N#CCn1c(C2=CCC2)c(-c2ccc(F)c(Cl)c2)c(=O)n(-c2cncc(Cl)c2)c1=O [Compound I-349]	–	10 to 100 nM	< 100 nM	–	–
Cc1cc(-n2c(=O)c(-c3ccc(F)c(Cl)c3)c(N3CC4(C3)CC(F)(F)C4)n(CC#N)c2=O)c[n+]([O-])c1 [Compound I-278]	–	< 10 nM	100 to 1000 nM	–	–
N#CCn1c(N2CC(c3ccccc3)C2)c(-c2ccc(F)c(Cl)c2)c(=O)n(-c2cncc(Cl)c2)c1=O [Compound I-083]	< 100 nM	< 10 nM	–	–	–
N#CCn1c(Oc2cncc(Cl)c2)c(-c2ccc(F)c(Cl)c2)c(=O)n(-c2cncc(Cl)c2)c1=O [Compound I-246]	–	< 10 nM	100 to 1000 nM	–	–
Cc1cncc(-n2c(=O)c(Cc3cc(F)c(F)c(F)c3)c(N3CCC4(CC3)CNC(=O)O4)n(CC#N)c2=O)c1 [Compound I-114]	100 to 1000 nM	< 10 nM	–	–	–
N#CCn1c(N2CCC(F)(F)CC2)c(-c2cc(Cl)cc(C#N)c2)c(=O)n(-c2cncc(Cl)c2)c1=O [Compound I-330]	–	< 10 nM	< 100 nM	–	–
C[C@@H](C#N)n1c(N2CC3(CCOC3)C2)c(-c2ccc(F)c(Cl)c2)c(=O)n(-c2cncc(Cl)c2)c1=O (single isomer, unassigned) [Compound I-262]	–	< 10 nM	< 100 nM	–	–
Cc1cncc(-n2c(=O)c(-c3ccc(F)c(Cl)c3)c(-c3cc4ccccc4[nH]3)n(CC#N)c2=O)c1 [Compound I-026]	< 100 nM	< 10 nM	–	–	–
N#CCn1c(N2CC3(C2)CC(O)(c2ccccc2)C3)c(-c2ccc(F)c(Cl)c2)c(=O)n(-c2cncc(Cl)c2)c1=O [Compound I-259]	–	0.45 nM	–	–	5.44 nM
N#CCn1c(N2CC(C(F)(F)F)C2)c(-c2ccc(F)c(Cl)c2)c(=O)n(-c2cncc(Cl)c2)c1=O [Compound I-086]	–	0.7 nM	–	–	3.31 nM
N#CCn1c(C2CC(F)(F)C2)c(-c2ccc(F)c(Cl)c2)c(=O)n(-c2cncc(Cl)c2)c1=O [Compound I-394]	–	< 10 nM	< 100 nM	–	–
Cc1cncc(-n2c(=O)c(-c3ccc(F)c(Cl)c3)c(-c3cnc4ccccc4c3)n(CC#N)c2=O)c1 [Compound I-017]	< 100 nM	< 10 nM	–	–	–
N#CCn1c(N2Cc3ccccc3C2)c(-c2cccc(Cl)c2)c(=O)n(Cc2ccc[nH]c2=O)c1=O [Compound I-124]	< 100 nM	< 10 nM	–	–	–
N#CCn1c(N2CC3(C2)CC(F)(F)C3)c(-c2ccc(F)c(F)c2)c(=O)n(-c2cncc(Cl)c2)c1=O [Compound I-315]	–	< 10 nM	< 100 nM	–	–
Cc1cncc(-n2c(=O)c(-c3ccc(F)c(Cl)c3)c(N3CC4(CCOC4)C3)n(CC#N)c2=O)c1 [Compound I-045]	< 100 nM	< 10 nM	–	–	–

SMILES	EC50 (SARS-CoV-2; [2])	IC50 [1]	EC50 (SARS-CoV-2; [3])	EC50 (SARS-CoV-2; [4])	EC50 (SARS-CoV-2; [5])
N#CCn1c(N2CC(O)(C(F)(F)F)C2)c(-c2ccc(F)c(Cl)c2)c(=O)n(-c2cnc3cc(Cl)ccn23)c1=O [Compound I-135]	–	10 to 100 nM	–	< 100 nM	–
N#CCn1c(N2CC(CO)C2)c(-c2ccc(F)c(Cl)c2)c(=O)n(-c2cncc(OCF)n2)c1=O [Compound I-409]	–	< 10 nM	< 100 nM	–	–
Cc1cncc(-n2c(=O)c(-c3cc(F)c(F)c(F)c3)c(CCC(C)(C)O)n(CC#N)c2=O)c1 [Compound I-213]	–	< 10 nM	< 100 nM	–	–
N#CCn1c(N2CCC(F)(F)CC2)c(-c2csc3ccccc23)c(=O)n(-c2cncc(Cl)c2)c1=O [Compound I-329]	–	< 10 nM	< 100 nM	–	–
C[C@@](O)(CCc1c(-c2ccc(F)c(Cl)c2)c(=O)n(-c2cncc(Cl)c2)c(=O)n1CC#N)C(F)F (single isomer, unassigned) [Compound I-393]	–	< 10 nM	< 100 nM	–	–
N#CCn1c(N2CC(OC(F)(F)F)C2)c(-c2ccc(F)c(Cl)c2)c(=O)n(-c2cncc(Cl)c2)c1=O [Compound I-257]	–	0.35 nM	–	–	2.98 nM
N#CCn1cc(-c2ccc(F)c(Cl)c2)c(=O)n(-c2cncc(Cl)c2)c1=O [Compound I-281]	–	10 to 100 nM	< 100 nM	–	–
N#CCn1c(-c2ccc(C3CC3)cc2)c(N2CCCCC2)c(=O)n(-c2cncc(Cl)c2)c1=O [Compound I-265]	–	10 to 100 nM	100 to 1000 nM	–	–
Cn1ccc(-c2c(-c3ccc(F)c(Cl)c3)c(=O)n(-c3cncc(Cl)c3)c(=O)n2CC#N)cc1=O [Compound I-303]	–	< 10 nM	< 100 nM	–	–
Cc1cnnc(-n2c(=O)c(Cc3cc(F)c(F)c(F)c3)c(N3Cc4ccccc4C3)n(CC#N)c2=O)c1 [Compound I-039]	< 100 nM	< 10 nM	–	–	–
N#CCn1c(N2CC(C(F)(F)F)C2)c(-c2ccc(F)c(F)c2)c(=O)n(-c2cncc(Cl)c2)c1=O [Compound I-316]	–	< 10 nM	< 100 nM	–	–
Cc1cncc(-n2c(=O)c(Cc3cc(F)c(F)c(F)c3)c(N3CC4(CCOC4)C3)n(C(C)C#N)c2=O)c1 (racemic) [Compound I-054]	–	10 to 100 nM	–	< 100 nM	–
N#CCn1c(N2CC(OC(F)(F)F)C2)c(-c2ccc(F)c(F)c2)c(=O)n(-c2cncc(Cl)c2)c1=O [Compound I-318]	–	< 10 nM	< 100 nM	–	–
N#CCn1c(N2CC(OC(F)F)C2)c(-c2ccc(F)c(Cl)c2)c(=O)n(-c2cncc(C(F)F)n2)c1=O [Compound I-358]	–	< 10 nM	< 100 nM	–	–
CCN1CCN(c2c(-c3ccc(F)c(Cl)c3)c(=O)n(-c3cncc(C)c3)c(=O)n2CC#N)CC1=O [Compound I-224]	–	< 10 nM	< 100 nM	–	–
COc1ccc(Oc2c(-c3cccc4ccccc34)c(=O)n(-c3cncc(C)c3)c(=O)n2CC#N)cc1 [Compound I-009]	100 to 1000 nM	> 100 nM	–	–	–
N#CCn1c(N2CCC(F)(F)CC2)c(-c2ccc(F)c(Cl)c2)c(=O)n(-c2cncc(C#N)c2)c1=O [Compound I-403]	–	< 10 nM	< 100 nM	–	–
Cc1cncc(-n2c(=O)c(-c3ccc(F)c(Cl)c3)c(N3CC4(CCCO4)C3)n(CC#N)c2=O)n1 [Compound I-195]	< 100 nM	< 10 nM	–	–	–
Cc1cncc(-n2c(=O)c(Cc3cc(F)c(F)c(F)c3)c(N3CCC4(CCC(=O)N4)C3)n(CC#N)c2=O)c1 (racemic) [Compound I-094]	–	10 to 100 nM	–	100 to 1000 nM	–
N#CCn1c(N2CCC(C(F)F)CC2)c(-c2ccc(F)c(F)c2)c(=O)n(-c2cncc(C#N)c2)c1=O [Compound I-412]	–	< 10 nM	< 100 nM	–	–
Cn1cnc(Cn2c(=O)c(Cc3cc(F)c(F)c(F)c3)c(N3CCc4ccccc4C3)n(CC#N)c2=O)n1 [Compound I-006]	100 to 1000 nM	> 100 nM	–	–	–
Cc1cncc(-n2c(=O)c(-c3ccc(F)c(Cl)c3)c(N3CC(C)(C)C3)n(CC#N)c2=O)n1 [Compound I-196]	< 100 nM	< 10 nM	–	–	–
N#CCn1c(N2CC3(CCOC3)C2)c(Cc2cc(F)c(F)c(F)c2)c(=O)n(-c2cnn3ccccc23)c1=O [Compound I-128]	100 to 1000 nM	> 100 nM	–	–	–
N#CCn1c(N2CC(OC(F)F)C2)c(-c2ccc(F)c(Cl)c2)c(=O)n(-c2cncc(C#N)c2)c1=O [Compound I-437]	–	< 10 nM	< 100 nM	–	–
Cc1cc(-n2c(=O)c(-c3ccc(F)c(Cl)c3)c(N3CCC(C(F)(F)F)CC3)n(CC#N)c2=O)cc(=O)[nH]1 [Compound I-162]	–	10 to 100 nM	–	100 to 1000 nM	–
